Results reported in patent US7211572B2 (Japan Tobacco Inc., priority 2003, dated 2007).
Counter-ions that a name gives are not always drawn.

These molecules were tested against T1, HIV integrase (Human immunodeficiency virus type 1 group M subtype B, UniProt P12497, F1332H) (assay: Determination of enzyme (HIV integrase) inhibitory activity). Settings: recombinant HIV integrase (F185H), strand transfer ELISA, absorbance at 450 nm.
T1 construct: HIV integrase full length gene; made in house; host or cells: Escherichia coli BL21(DE3), plasmid pET21a-INH
Format: biochemical
Method in brief: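 Full-length integrase with F185H, expressed in E. coli and purified, was reacted for 60 min at 37 °C with compound and biotinylated donor DNA bound to streptavidin plates. Target DNA was added for 10 min, then anti-digoxigenin-peroxidase detection at A450; IC50 from % inhibition versus enzyme-free blank.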

SMILES	IC50
O=c1c(Br)cn2ccn(Cc3cccc(Cl)c3)c(=O)c2c1O [Example 94, 7-bromo-2-(3-chlorobenzyl)-9-hydroxy-2H-pyrido[1,2-a]pyrazine-1,8-dione hydrochloride]	10 to 100 nM
O=c1ccn2ccn(CCCc3c(F)cccc3Cl)c(=O)c2c1O [Example 95, 2-[3-(2-chloro-6-fluorophenyl)propyl]-9-hydroxy-2H-pyrido[1,2-a]pyrazine-1,8-dione hydrochloride]	10 to 100 nM
O=c1c(-c2ccccc2)cn2ccn(Cc3cccc(Cl)c3)c(=O)c2c1O [Example 96, 2-(3-chlorobenzyl)-9-hydroxy-7-phenyl-2H-pyrido[1,2-a]pyrazine-1,8-dione hydrochloride]	< 10 nM
CN(C)C(=O)c1cn(Cc2cccc(Cl)c2)c(=O)c2c(O)c(=O)ccn12 [Example 97, N,N-dimethyl-2-(3-chlorobenzyl)-9-hydroxy-1,8-dioxo-1,8-dihydro-2H-pyrido[1,2-a]pyrazine-4-carboxamide]	10 to 100 nM
O=C(O)c1cn(Cc2cccc(Cl)c2)c(=O)c2c(O)c(=O)ccn12 [Example 98, 2-(3-chlorobenzyl)-9-hydroxy-1,8-dioxo-1,8-dihydro-2H-pyrido[1,2-a]pyrazine-4-carboxylic acid]	10 to 100 nM
O=c1c(O)c2c(=O)n(Cc3cccc(Cl)c3)ccn2c2ccccc12 [Example 99, 3-(3-chlorobenzyl)-5-hydroxy-3H-pyrazino[1,2-a]quinoline-4,6-dione hydrochloride]	10 to 100 nM
O=c1ncn2ccn(Cc3cccc(Cl)c3)c(=O)c2c1O [Example 100, 2-(3-chlorobenzyl)-9-hydroxy-2H-pyrazino[1,2-c]pyrimidine-1,8-dione hydrochloride]	10 to 100 nM
O=Cc1cn(Cc2cccc(Cl)c2)c(=O)c2c(O)c(=O)ccn12 [Example 101, 2-(3-chlorobenzyl)-9-hydroxy-1,8-dioxo-1,8-dihydro-2H-pyrido[1,2-a]pyrazine-4-carbaldehyde]	10 to 100 nM
O=c1ccn2c(CO)cn(Cc3cccc(Cl)c3)c(=O)c2c1O [Example 102, 2-(3-chlorobenzyl)-9-hydroxy-4-hydroxymethyl-2H-pyrido[1,2-a]pyrazine-1,8-dione]	10 to 100 nM
CC(O)c1cn(Cc2cccc(Cl)c2)c(=O)c2c(O)c(=O)ccn12 (centres unmarked) [Example 103, 2-(3-chlorobenzyl)-9-hydroxy-4-(1-hydroxyethyl)-2H-pyrido[1,2-a]pyrazine-1,8-dione]	10 to 100 nM
CC(C)c1cn2ccn(Cc3cccc(Cl)c3)c(=O)c2c(O)c1=O [Example 104, 2-(3-chlorobenzyl)-9-hydroxy-7-isopropyl-2H-pyrido[1,2-a]pyrazine-1,8-dione hydrochloride]	10 to 100 nM
CC(=O)c1cn(Cc2cccc(Cl)c2)c(=O)c2c(O)c(=O)ccn12 [Example 105, 4-acetyl-2-(3-chlorobenzyl)-9-hydroxy-2H-pyrido[1,2-a]pyrazine-1,8-dione]	10 to 100 nM
Cn1cc2c(c(O)c1=O)C(=O)N(Cc1cccc(Cl)c1)CC2 [Example 106, 2-(3-chlorobenzyl)-8-hydroxy-6-methyl-2,3,4,6-tetrahydro-2,6-naphthyridine-1,7-dione]	10 to 100 nM
N#Cc1cn(Cc2cccc(Cl)c2)c(=O)c2c(O)c(=O)ccn12 [Example 107, 2-(3-chlorobenzyl)-9-hydroxy-1,8-dioxo-1,8-dihydro-2H-pyrido[1,2-a]pyrazine-4-carbonitrile]	10 to 100 nM
O=C1c2c(O)c(=O)ncn2CCN1Cc1cccc(Cl)c1 [Example 108, 2-(3-chlorobenzyl)-9-hydroxy-3,4-dihydro-2H-pyrazino[1,2-c]pyrimidine-1,8-dione]	10 to 100 nM
CS(=O)(=O)Oc1c(=O)c(Br)cn2ccn(Cc3cccc(Cl)c3)c(=O)c12 [Example 109, 7-bromo-2-(3-chlorobenzyl)-1,8-dioxo-1,8-dihydro-2H-pyrido[1,2-a]pyrazin-9-yl methanesulfonate]	100 to 1000 nM
O=C1c2c(O)c(=O)c(Br)cn2CC(O)N1Cc1cccc(Cl)c1 (centres unmarked) [Example 110, 7-bromo-2-(3-chlorobenzyl)-3,9-dihydroxy-3,4-dihydro-2H-pyrido[1,2-a]pyrazine-1,8-dione hydrochloride]	100 to 1000 nM
O=C1c2c(O)c(=O)c3ccccc3n2CCN1Cc1cccc(Cl)c1 [Example 111, 3-(3-chlorobenzyl)-5-hydroxy-2,3-dihydro-1H-pyrazino[1,2-a]quinoline-4,6-dione]	10 to 100 nM
O=c1c(-c2cccc(Cl)c2)cn2ccn(Cc3cccc(Cl)c3)c(=O)c2c1O [Example 112, 2-(3-chlorobenzyl)-7-(3-chlorophenyl)-9-hydroxy-2H-pyrido[1,2-a]pyrazine-1,8-dione hydrochloride]	10 to 100 nM

SMILES	IC50
O=c1c(-c2ccc(Cl)cc2)cn2ccn(Cc3cccc(Cl)c3)c(=O)c2c1O [Example 113, 2-(3-chlorobenzyl)-7-(4-chlorophenyl)-9-hydroxy-2H-pyrido[1,2-a]pyrazine-1,8-dione hydrochloride]	10 to 100 nM
O=c1c(-c2ccccc2Cl)cn2ccn(Cc3cccc(Cl)c3)c(=O)c2c1O [Example 114, 2-(3-chlorobenzyl)-7-(2-chlorophenyl)-9-hydroxy-2H-pyrido[1,2-a]pyrazine-1,8-dione hydrochloride]	< 10 nM
O=c1c(-c2cccnc2)cn2ccn(Cc3cccc(Cl)c3)c(=O)c2c1O [Example 115, 2-(3-chlorobenzyl)-9-hydroxy-7-(pyridin-3-yl)-2H-pyrido[1,2-a]pyrazine-1,8-dione hydrochloride]	< 10 nM
O=c1c(-c2ccncc2)cn2ccn(Cc3cccc(Cl)c3)c(=O)c2c1O [Example 116, 2-(3-chlorobenzyl)-9-hydroxy-7-(pyridin-4-yl)-2H-pyrido[1,2-a]pyrazine-1,8-dione hydrochloride]	< 10 nM
O=c1c(-c2ccccn2)cn2ccn(Cc3cccc(Cl)c3)c(=O)c2c1O [Example 117, 2-(3-chlorobenzyl)-9-hydroxy-7-(pyridin-2-yl)-2H-pyrido[1,2-a]pyrazine-1,8-dione hydrochloride]	< 10 nM
CC(C)(C)C(O)c1cn2ccn(Cc3cccc(Cl)c3)c(=O)c2c(O)c1=O (centres unmarked) [Example 118, 2-(3-chlorobenzyl)-9-hydroxy-7-(1-hydroxy-2,2-dimethylpropyl)-2H-pyrido[1,2-a]pyrazine-1,8-dione hydrochloride]	10 to 100 nM
O=c1c(-c2ccccc2)cn2c(CC3CCCCC3)cn(Cc3cccc(Cl)c3)c(=O)c2c1O [Example 119, 2-(3-chlorobenzyl)-4-cyclohexylmethyl-9-hydroxy-7-phenyl-2H-pyrido[1,2-a]pyrazine-1,8-dione hydrochloride]	100 to 1000 nM
O=c1c(-c2ccco2)cn2ccn(Cc3cccc(Cl)c3)c(=O)c2c1O [Example 120, 2-(3-chlorobenzyl)-7-(furan-2-yl)-9-hydroxy-2H-pyrido[1,2-a]pyrazine-1,8-dione hydrochloride]	< 10 nM
Cn1cc2c(c(O)c1=O)C(=O)N(Cc1ccc(Cl)c(Cl)c1)CC2 [Example 121, 2-(3,4-dichlorobenzyl)-8-hydroxy-6-methyl-2,3,4,6-tetrahydro-2,6-naphthyridine-1,7-dione]	< 10 nM
Cn1cc2c(c(O)c1=O)C(=O)N(CCCc1c(F)cccc1Cl)CC2 [Example 122, 2-[3-(2-chloro-6-fluorophenyl)propyl]-8-hydroxy-6-methyl-2,3,4,6-tetrahydro-2,6-naphthyridine-1,7-dione]	< 10 nM
Cn1nc2c(c(O)c1=O)C(=O)N(Cc1cccc(Cl)c1)CC2 [Example 123, 6-(3-chlorobenzyl)-4-hydroxy-2-methyl-2,6,7,8-tetrahydropyrido[4,3-c]pyridazine-3,5-dione]	100 to 1000 nM
O=c1c(-c2cc3ccccc3o2)cn2ccn(Cc3cccc(Cl)c3)c(=O)c2c1O [Example 124, 7-(benzofuran-2-yl)-2-(3-chlorobenzyl)-9-hydroxy-2H-pyrido[1,2-a]pyrazine-1,8-dione hydrochloride]	10 to 100 nM
CC(C)(C)C(=O)c1cn2ccn(Cc3cccc(Cl)c3)c(=O)c2c(O)c1=O [Example 125, 2-(3-chlorobenzyl)-7-(2,2-dimethylpropionyl)-9-hydroxy-2H-pyrido[1,2-a]pyrazine-1,8-dione hydrochloride]	< 10 nM
CC(C)(C)Cc1cn2ccn(Cc3cccc(Cl)c3)c(=O)c2c(O)c1=O [Example 126, 2-(3-chlorobenzyl)-7-(2,2-dimethylpropyl)-9-hydroxy-2H-pyrido[1,2-a]pyrazine-1,8-dione hydrochloride]	10 to 100 nM
O=c1c(-c2ccccc2C(F)(F)F)cn2ccn(Cc3cccc(Cl)c3)c(=O)c2c1O [Example 127, 2-(3-chlorobenzyl)-9-hydroxy-7-(2-trifluoromethylphenyl)-2H-pyrido[1,2-a]pyrazine-1,8-dione hydrochloride]	< 10 nM
COc1cccc(-c2cn3ccn(Cc4cccc(Cl)c4)c(=O)c3c(O)c2=O)c1 [Example 128, 2-(3-chlorobenzyl)-9-hydroxy-7-(3-methoxyphenyl)-2H-pyrido[1,2-a]pyrazine-1,8-dione hydrochloride]	10 to 100 nM
CC(C)c1cn(Cc2cccc(Cl)c2)c(=O)c2c(O)c(=O)c(Br)cn12 [Example 129, 7-bromo-2-(3-chlorobenzyl)-9-hydroxy-4-isopropyl-2H-pyrido[1,2-a]pyrazine-1,8-dione hydrochloride]	10 to 100 nM
O=c1c(-c2ccccc2F)cn2ccn(Cc3cccc(Cl)c3)c(=O)c2c1O [Example 130, 2-(3-chlorobenzyl)-7-(2-fluorophenyl)-9-hydroxy-2H-pyrido[1,2-a]pyrazine-1,8-dione hydrochloride]	< 10 nM
CC(C)c1cn(Cc2cccc(Cl)c2)c(=O)c2c(O)c(=O)c(-c3ccccc3)cn12 [Example 131, 2-(3-chlorobenzyl)-9-hydroxy-4-isopropyl-7-phenyl-2H-pyrido[1,2-a]pyrazine-1,8-dione hydrochloride]	10 to 100 nM
